Columns and labels:
[1] = target: Never-In-Mitosis Gene A (NIMA)-related kinase 2 (NEK2) (Homo sapiens, UniProt P51955); assay: Kinase selectivity panel, NEK2; type: biochemical; settings: NEK2, relevant activity observed
ES-2 xenografts = assay: Tumor xenograft in nude mice; type: in vivo
Description: (§1) Specific pathogen-free female nude mice (BALB/cAJcl-nu/nu), 6 weeks old, were purchased from CLEA Japan, Inc (Tokyo, Japan). Subcutaneous xenograft tumors in the mice were established by the injection of a 100-μL suspension containing 5×10^6 cells of the TOV-21, RMG-I, or ES-2 lines in PBS. Tumors were removed after exponential growth, cut into 3-mm pieces, and transplanted subcutaneously into other mice for RMG-I cells. DS-7423 was suspended in 0.5 w/v% Methyl Cellulose 400 solution (Wako Pure Chemical Industries, Ltd.) Oral daily administration of DS-7423 started 8–22 days later, following the injection of the cells (5–6×10^6 cells/0.1 mL). One week after tumor transplantation, mice were assigned randomly to one of the […] treatment regimens: (1) non-treated control, (2) DS-7423 (1.5 mg/kg), (3) DS-7423 (3 mg/kg), and (4) DS-7423 (6 mg/kg). Each treatment group consisted of five mice. DS-7423 was injected orally (p.o.) once a day. Tumor volumes (in mm^3) were calculated by the formula: ([major axis] × [minor axis]^2/2). After the treatment, the tumors were removed and analyzed by western blotting. Tumor weight (wet weight) was measured, and the average weight was calculated for each group.
Supplementary file pone.0087220.s002.pptx: Figure S2 In vivo effect of DS-7423 in nude mice. […] The levels of p-Akt (Thr-308) and p-S6 (Ser-240/244) were assessed. […]

RMG-I xenografts = assay: Tumor xenograft in nude mice; type: in vivo
Description: as §1

TOV-21G xenografts = assay: Tumor xenograft in nude mice; type: in vivo
Description: as §1

PI3Kδ = PI3Kδ (Homo sapiens, UniProt O00329); assay: PI3Kδ inhibition; type: biochemical
OCCA cells = assay: Cell cycle analysis (flow cytometry), OCCA panel; type: cell-based; settings: 48 h
Method: Cells (5×10^5) were seeded in 60-mm dishes and treated with DS-7423 for 48 h. Floating and adherent cells were collected by trypsinization and washed twice with phosphate buffer saline (PBS). Cells were resuspended in cold 70% ethanol and maintained at 4°C overnight. After being washed twice with PBS, cells were incubated in RNase A (0.25 mg/mL) (Sigma) for 30 min at 37°C, followed by staining with propidium iodide (PI; 50 μg/mL) (Sigma) at 4°C for 30 min in the dark. Cells were then analyzed using flow cytometry (BD FACS Calibur HG, Franklin Lakes, NJ). Cell cycle distribution was analyzed using CELL Quest pro ver. 3.1. […]. All experiments were repeated three times.

mTOR = mTOR (Homo sapiens, UniProt P42345); assay: mTOR inhibition; type: biochemical
OVISE cells = assay: Apoptosis by annexin-V FITC/PI staining; type: cell-based
Method: Cells (5×10^5) were cultured in 60-mm plates for 24 h before treatment with either DMSO (control), and 156 nM DS-7423, or 2,500 nM DS-7423 for 48 h. Cells were trypsinized, washed twice with PBS, and then analyzed after double staining with annexin-V fluorescein isothiocyanate (FITC) (Abcam, Cambridge, MA) and PI. The apoptotic cell population was analyzed using flow cytometry. All experiments were performed three times.
Cells were plated at approximately 30% confluence in 100-mm plates and incubated for 24 h before transfection with small interfering RNA (siRNA) duplexes at the concentrations indicated, using Lipofectamine […] RNAiMAX (Invitrogen, Carlsbad, CA) and Opti-MEM medium (Life Technologies, Grand Island, NY). The siRNAs specific for TP53 were purchased from Invitrogen. A negative control kit was used as a control (Invitrogen, Carlsbad, CA).

Sequence of PI3Kδ (O00329 whole entry): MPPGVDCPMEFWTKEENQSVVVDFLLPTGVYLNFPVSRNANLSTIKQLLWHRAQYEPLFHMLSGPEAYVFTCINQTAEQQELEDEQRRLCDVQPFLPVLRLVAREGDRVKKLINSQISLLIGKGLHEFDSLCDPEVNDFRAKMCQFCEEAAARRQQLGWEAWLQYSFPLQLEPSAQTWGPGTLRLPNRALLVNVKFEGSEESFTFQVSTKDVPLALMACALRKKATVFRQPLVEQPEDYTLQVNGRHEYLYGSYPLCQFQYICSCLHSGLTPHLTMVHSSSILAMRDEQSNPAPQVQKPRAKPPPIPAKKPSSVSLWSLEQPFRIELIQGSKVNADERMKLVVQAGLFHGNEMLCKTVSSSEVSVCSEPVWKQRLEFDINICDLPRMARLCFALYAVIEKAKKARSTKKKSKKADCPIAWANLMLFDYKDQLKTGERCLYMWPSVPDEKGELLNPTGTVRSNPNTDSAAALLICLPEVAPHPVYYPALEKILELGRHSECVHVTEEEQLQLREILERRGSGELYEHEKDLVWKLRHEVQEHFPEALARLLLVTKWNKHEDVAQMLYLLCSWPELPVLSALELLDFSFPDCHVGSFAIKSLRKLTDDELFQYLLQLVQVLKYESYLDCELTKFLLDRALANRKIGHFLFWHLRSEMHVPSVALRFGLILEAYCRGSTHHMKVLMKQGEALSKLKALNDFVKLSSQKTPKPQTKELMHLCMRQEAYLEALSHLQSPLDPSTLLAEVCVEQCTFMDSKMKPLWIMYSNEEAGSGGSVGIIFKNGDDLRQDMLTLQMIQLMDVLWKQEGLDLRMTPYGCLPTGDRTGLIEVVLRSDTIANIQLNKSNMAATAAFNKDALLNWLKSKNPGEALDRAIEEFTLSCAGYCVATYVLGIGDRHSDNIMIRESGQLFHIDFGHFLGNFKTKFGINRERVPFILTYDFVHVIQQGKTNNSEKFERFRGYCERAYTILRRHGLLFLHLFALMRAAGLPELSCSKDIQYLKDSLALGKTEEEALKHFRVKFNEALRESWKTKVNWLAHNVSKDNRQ
Sequence of PI3Kδ (P27986 whole entry partner): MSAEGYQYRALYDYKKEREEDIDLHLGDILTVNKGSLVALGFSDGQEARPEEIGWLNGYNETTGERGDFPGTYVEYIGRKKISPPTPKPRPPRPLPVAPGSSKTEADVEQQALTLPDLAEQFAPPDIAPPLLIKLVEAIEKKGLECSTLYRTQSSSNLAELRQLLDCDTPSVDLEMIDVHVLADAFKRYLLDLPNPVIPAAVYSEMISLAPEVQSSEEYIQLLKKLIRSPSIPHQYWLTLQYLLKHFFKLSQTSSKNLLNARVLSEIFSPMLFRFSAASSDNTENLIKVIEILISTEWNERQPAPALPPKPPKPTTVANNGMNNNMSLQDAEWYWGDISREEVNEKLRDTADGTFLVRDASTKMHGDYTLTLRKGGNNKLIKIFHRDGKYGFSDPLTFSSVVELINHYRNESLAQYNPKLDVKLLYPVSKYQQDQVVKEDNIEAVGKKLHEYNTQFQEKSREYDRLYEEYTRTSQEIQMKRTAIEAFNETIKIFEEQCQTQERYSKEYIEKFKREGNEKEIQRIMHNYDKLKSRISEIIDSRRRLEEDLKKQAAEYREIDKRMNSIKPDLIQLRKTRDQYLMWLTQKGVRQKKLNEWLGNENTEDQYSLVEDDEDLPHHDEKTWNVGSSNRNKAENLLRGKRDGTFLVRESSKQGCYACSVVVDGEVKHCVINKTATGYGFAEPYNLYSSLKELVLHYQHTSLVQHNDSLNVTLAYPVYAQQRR
Sequence of Never-In-Mitosis Gene A (NIMA)-related kinase 2 (NEK2) (P51955 whole entry, species assumed): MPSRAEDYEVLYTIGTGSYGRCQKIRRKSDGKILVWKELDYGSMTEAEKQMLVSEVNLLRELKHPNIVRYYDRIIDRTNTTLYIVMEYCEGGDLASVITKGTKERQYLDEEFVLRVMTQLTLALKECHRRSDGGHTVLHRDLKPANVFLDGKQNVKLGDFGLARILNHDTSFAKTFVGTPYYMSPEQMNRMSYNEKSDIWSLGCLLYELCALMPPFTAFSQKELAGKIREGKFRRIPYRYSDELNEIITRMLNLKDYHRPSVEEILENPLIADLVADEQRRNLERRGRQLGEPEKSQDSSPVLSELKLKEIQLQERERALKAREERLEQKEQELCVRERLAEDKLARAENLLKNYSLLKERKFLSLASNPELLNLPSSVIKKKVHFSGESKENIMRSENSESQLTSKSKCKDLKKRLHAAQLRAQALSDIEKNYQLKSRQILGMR

## CC(=O)N1CCN(c2nc3c(N4CCOCC4)nc(-c4cnc(N)nc4)nc3n2CC(F)(F)F)C[C@H]1C [DS-7423]
[1]
  IC50: < 200 nM
ES-2 xenografts
  anti-tumor effect compared with TOV-21G and RMG-I xenografts: weaker
ES-2 xenografts; 6 mg/kg daily, totally 8 times
  estimated tumor volumes compared to the control: smaller
RMG-I xenografts; RMG-I xenograft mice, oral daily 1.5, 3 or 6 mg/kg
  adverse effects, including body weight loss of more than 10%: No significant adverse effects
RMG-I xenografts; RMG-I xenografts, 2 and 6 h after last administration
  levels of p-AKT (Thr308) and p-S6 (Ser240/244) in xenografts: suppressed
RMG-I xenografts; RMG-I, oral daily 1.5, 3 or 6 mg/kg, dose-dependent
  tumor growth of xenografts: significantly suppressed
TOV-21G xenografts; TOV-21G xenograft mice, oral daily 1.5, 3 or 6 mg/kg
  adverse effects, including body weight loss of more than 10%: No significant adverse effects
TOV-21G xenografts; TOV-21G xenografts, 2 and 6 h after last administration
  levels of p-AKT (Thr308) and p-S6 (Ser240/244) in xenografts: suppressed
TOV-21G xenografts; TOV-21G, oral daily 1.5, 3 or 6 mg/kg, dose-dependent
  tumor growth of xenografts: significantly suppressed
PI3Kδ
  IC50: 262 nM
OCCA cells; OCCA cells, change weak in ES-2
  size of the S-phase population: decreased
OCCA cells; six of the nine cell lines
  sizes of sub-G1 populations: increased in a dose-dependent manner
mTOR
  IC50: 34.9 nM
OVISE cells; OVISE cells
  percentage of apoptotic cells compared with rapamycin: significantly higher
OVISE cells; OVISE, TP53 siRNA, 156 or 2,500 nM, 48 h
  apoptotic cell death after knockdown of TP53: rescued

Source: PMC3913610, “Antitumor Activity and Induction of TP53-Dependent Apoptosis toward Ovarian Clear Cell Adenocarcinoma by the Dual PI3K/mTOR Inhibitor DS-7423” (PLoS ONE, 2014)
